From patent US20220207902A1, “SYSTEM AND METHOD FOR AUTOMATICALLY DISCOVERING, CHARACTERIZING, CLASSIFYING AND SEMI-AUTOMATICALLY LABELING ANIMAL BEHAVIOR AND QUANTITATIVE PHENOTYPING OF BEHAVIORS IN ANIMALS” (President and Fellows of Harvard College, priority 2012, published 2022)
“Also recorded” adds a separate entry of the source.

Assays:
[1] = test system: mice; assay: conventional two-compartment behavioral choice assay (odor-soaked filter paper); type: in vivo; details: odors soaked into filter papers placed in the small compartment of a cage divided by a parafilm curtain; FIGS. 4A and 4B
Excerpt: (§1) FIGS. 4A-4E depict assessment of odor-driven innate behaviors in two and three dimensions. FIGS. 4A and B depict a conventional two-compartment behavioral choice assay. FIG. 4C, left, depicts a new behavioral arena. FIG. 4C, right, depicts a chart generated through use of custom-written Matlab code to track animal trajectories.
(§2) FIGS. 4A-4E depict the assessment of odor-driven innate behaviors in two and three dimensions. […] Odors are soaked into filter papers, which are placed in the small compartment of a cage divided by a parafilm curtain. This assay suffers from incomplete control of gas-phase odorant concentration, poorly defined spatial odor gradients and experimental variability due to the physical interaction of the animal with the odor source. The present inventors have therefore developed a new behavioral arena (FIG. 4C, left), in which odors are delivered to each of 4 corners in gas phase via high-performance computer-controlled Teflon valves.

[2] = test system: mice; assay: odor quadrant arena, odors delivered in gas phase to one of four corners, animal tracked by 2D tracking or depth camera; type: in vivo
Excerpt: as §1, §2
Odors are delivered to one of four quadrants via computer-controlled olfactometers, which can deliver precisely timed pulses or square waves of odorants at defined concentrations. […]

Row | Structure (SMILES) | innate behavioral response to odor (attraction or avoidance) [1] | posture (aspect ratio versus height) by depth camera ([2]; depth camera, compared with control conditions (stretched and low to the ground), FIG. 4E) | qualitative and quantitative avoidance behavior ([2]; odor delivered in gas phase in the upper right corner, FIG. 4D)
1 | Cc1cnc(C)cn1 [2,5-DMP] | avoidance |  | 
2 | CCCCCC(C)=O [2-heptanone] | avoidance |  | 
3 | CC1=NC(C)SC1C (stereo not shown) [TMT] | avoidance | become compressed (from the perspective of the overhead camera) and elevate their noses | avoidance behaviors that are extraordinarily robust and well controlled; also recorded: avoidance behavior
4 | CCCC(=O)O [butyric acid] | avoidance |  | 
5 | C=CCc1ccc(O)c(OC)c1 [eugenol] | robust innate behavioral attraction |  | 
